The values below come from patent publication US20060257543A1, “Molecules comprising linked organic moieties as flavor modifiers for comestible compositions” (priority 2005, published 2006).

For one experiment, the target named is T1, hT1R2/hT1R3 sweet receptor expressed in an HEK293 cell line (Homo sapiens, UniProt Q7RTX0+Q8TE23).
T1 construct: expressed in transfected cells; host or cells: HEK293 derivative, clone S-9
T1 sequence (Q8TE23 20-839): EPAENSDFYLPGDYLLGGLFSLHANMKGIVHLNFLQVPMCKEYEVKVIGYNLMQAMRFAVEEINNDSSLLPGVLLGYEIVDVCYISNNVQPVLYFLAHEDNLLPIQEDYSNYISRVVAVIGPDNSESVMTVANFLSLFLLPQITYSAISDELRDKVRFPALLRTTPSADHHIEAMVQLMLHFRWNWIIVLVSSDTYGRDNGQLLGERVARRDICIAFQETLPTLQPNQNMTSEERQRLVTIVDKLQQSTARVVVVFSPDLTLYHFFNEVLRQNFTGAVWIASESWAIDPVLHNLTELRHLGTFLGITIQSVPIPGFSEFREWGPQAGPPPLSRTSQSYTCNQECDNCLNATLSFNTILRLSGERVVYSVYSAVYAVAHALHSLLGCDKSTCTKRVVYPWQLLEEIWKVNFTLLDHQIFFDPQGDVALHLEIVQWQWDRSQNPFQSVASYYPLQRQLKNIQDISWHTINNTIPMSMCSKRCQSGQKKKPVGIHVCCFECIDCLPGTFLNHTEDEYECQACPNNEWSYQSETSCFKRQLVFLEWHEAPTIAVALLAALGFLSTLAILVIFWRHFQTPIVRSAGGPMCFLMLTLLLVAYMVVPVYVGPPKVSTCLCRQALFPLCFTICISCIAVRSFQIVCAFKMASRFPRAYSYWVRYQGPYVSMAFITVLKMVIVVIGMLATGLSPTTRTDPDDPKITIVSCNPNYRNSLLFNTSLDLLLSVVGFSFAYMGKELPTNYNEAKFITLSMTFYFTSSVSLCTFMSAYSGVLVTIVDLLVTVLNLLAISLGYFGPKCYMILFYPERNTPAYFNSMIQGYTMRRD
T1 sequence (Q7RTX0 21-852): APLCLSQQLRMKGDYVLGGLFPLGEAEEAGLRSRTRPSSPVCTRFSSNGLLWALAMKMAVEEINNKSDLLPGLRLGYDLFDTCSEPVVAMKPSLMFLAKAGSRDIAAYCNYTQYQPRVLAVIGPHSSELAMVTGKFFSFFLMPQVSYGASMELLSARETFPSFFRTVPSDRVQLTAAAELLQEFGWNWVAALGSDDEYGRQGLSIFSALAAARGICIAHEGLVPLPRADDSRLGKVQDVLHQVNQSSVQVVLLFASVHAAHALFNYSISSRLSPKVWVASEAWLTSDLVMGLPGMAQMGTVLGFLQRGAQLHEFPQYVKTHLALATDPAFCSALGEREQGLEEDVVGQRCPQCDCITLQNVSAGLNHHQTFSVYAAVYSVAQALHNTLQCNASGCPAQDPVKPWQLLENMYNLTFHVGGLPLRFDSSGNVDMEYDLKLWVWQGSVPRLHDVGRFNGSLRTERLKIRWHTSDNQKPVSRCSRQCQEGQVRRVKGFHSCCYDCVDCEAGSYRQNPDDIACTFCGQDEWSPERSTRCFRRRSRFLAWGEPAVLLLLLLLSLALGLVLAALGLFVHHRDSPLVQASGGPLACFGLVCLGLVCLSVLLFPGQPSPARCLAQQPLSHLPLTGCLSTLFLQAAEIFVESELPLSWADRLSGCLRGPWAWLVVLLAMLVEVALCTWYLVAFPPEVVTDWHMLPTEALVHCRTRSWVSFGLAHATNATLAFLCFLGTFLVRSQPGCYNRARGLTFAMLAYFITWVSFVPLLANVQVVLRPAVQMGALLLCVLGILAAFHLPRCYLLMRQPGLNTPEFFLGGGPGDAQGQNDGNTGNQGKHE
Nature of the experiment: In vitro hT1R2/hT1R3 sweet taste receptor activation assay (FLIPR, dose response). The format is cell-based. Particulars: read-out: EC50 for activation of a hT1R2/hT1R3 sweet receptor. An excerpt:
An HEK293 cell line derivative (see Chandrashekar, J., Mueller, K. L., Hoon, M. A., Adler, E., Feng, L., Guo, W., Zuker, C. S., Ryba, N. J.,. Cel,l 2000, 100, 703-711.) that stably expresses Gα15 and hT1R2/hT1R3 (see Li, X., Staszewski, L., Xu, H., Durick, K., Zoller, M., Adler, E. Proc Natl Acad Sci USA 2002, 99, 4692-4696, and PCT Publication No. WO 03/001876) was used to identify compounds with sweet taste enhancing properties. These references are hereby incorporated herein by reference for their methods of preparing and maintaing the cell lines discussed below, and for their methods for screeing compounds that inhibit the biological receptors.
Compounds covered in this document were initially selected based on their activity on the hT1R2/hT1R3—HEK293-Gα15 cell line (Li, et al. vide supra). Activity was determined using an automated fluorometric imaging assay on a FLIPR instrument (Fluorometric Intensity Plate Reader, Molecular Devices, Sunnyvale, Calif.) (designated FLIPR assay). Cells from one clone (designated S-9 cells) were seeded into 384-well plates (at approximately 50,000 cells per well) in a medium containing DMEM Low Glucose (Invitrogen, Carlsbad, Calif.), 10% dialyzed fetal bovine serum (Invitrogen, Carlsbad, Calif.), 100 Units/ml Penicillin G, and 100 μg/ml Streptomycin (Invitrogen, Carlsbad, Calif.) (Li, et al. vide supra) see also World Patent No. WO 03/001876 A2). S-9 cells were grown for 24 hours at 37° C. S-9 cells were then loaded with the calcium dye Fluo-3AM (Molecular Probes, Eugene, Oreg.), 4 μM in a phosphate buffered saline (D-PBS) (Invitrogen, Carlsbad, Calif.), for 1 hour at room temperature. After replacement with 25 μl D-PBS, stimulation was performed in the FLIPR instrument and at room temperature by the addition of 25 μl D-PBS supplemented with different stimuli at concentrations corresponding to twice the desired final level. Receptor activity was quantified by determining the maximal fluorescence increases (using a 480 nm excitation and 535 nm emission) after normalization to basal fluorescence intensity measured before stimulation.
For dose-responses analysis, stimuli were presented in duplicates at 10 different concentrations ranging from 60 nM to 30 μM. Activities were normalized to the response obtained with 400 mM D-fructose, a concentration that elicits maximum receptor response. EC50s were determined using a non-linear regression algorithm (using a Senomyx, Inc. software), where the Hill slope, bottom asymptotes and top asymptotes were allow to vary. Identical results were obtained when analyzing the dose-response data using commercially available software for non-linear regression analysis such as GraphPad PRISM (San Diego, Calif.).
Take `CC(C)Oc1ccc(NC(=S)NCc2cccs2)cc1` [Example 5, 1-(4-Isopropoxyphenyl)-3-(thiophen-2-ylmethyl)thiourea]: the EC50 came out at 120 nM. On the same count and under the same terms, next, `CC(C)Oc1ccc(NC(=S)NCc2ccco2)cc1` [Example 6, 1-(4-Isopropoxyphenyl)-3-(furan-2-ylmethyl)thiourea]: 550 nM; `CCOc1ccc(NC(=S)NCc2ccco2)cc1` [Example 7, 1-(4-ethoxyphenyl)-3-(furan-2-ylmethyl)thiourea]: 1700 nM. The same measure, in the same setting: next, `CCOc1ccc(NC(=S)NCc2ccoc2)cc1` [Example 8, 1-(4-ethoxyphenyl)-3-(furan-3-ylmethyl)thiourea]: 230 nM; `CCC(C)Oc1ccc(NC(=S)NCc2ccco2)cc1` (stereo not shown) [Example 9, 1-(4-sec-Butoxy-phenyl)-3-furan-2-ylmethyl-thiourea]: 5300 nM; `CC(C)c1ccc(NC(=S)NCc2ccoc2)cc1` [Example 10, 1-(furan-3-ylmethyl)-3-(4-isopropylphenyl)thiourea]: 750 nM. Take `CC(C)Oc1ccc(NC(=S)NCc2ccccc2)cc1` [Example 11]: the EC50 came to 1000 nM. On the same count and under the same terms, next, `COc1ccc(CNc2ccc(F)cc2C)cc1O` [Example 13, 5-((4-fluoro-2-methylphenylamino)methyl)-2-methoxyphenol]: 2290 nM. Regarding `COc1ccc(CNc2ccc(F)cc2F)cc1O` [Example 14, 5-((2,4-difluorophenylamino)methyl)-2-methoxyphenol], the EC50 is 2100 nM. The same measure, in the same setting: next, `COc1ccc(CNc2c(F)cc(F)cc2F)cc1O` [Example 15, 2-methoxy-5-((2,4,6-trifluorophenylamino)methyl)phenol]: 2320 nM; `COc1ccc(CNc2ccccc2F)cc1O` [Example 16, 5-((2-fluorophenylamino)methyl)-2-methoxyphenol]: 2410 nM. Still for that read-out and setting: the value for `COc1ccc(CNc2cc(C)ccc2C)cc1O` [Example 17, 5-((2,5-dimethylphenylamino)methyl)-2-methoxyphenol] was 2580 nM; that for `CC(C)Oc1ccc(NC(=S)NCc2ccc[nH]2)cc1` [Example 19, 1-((1H-pyrrol-2-yl)methyl)-3-(4-isopropoxyphenyl)thiourea] was 25 nM.

The experiment is the same for the next values; noted with them: read-out: Sweet EC50.
As for `COc1cc(OC)c(CNC(=S)Nc2ccc(OC(C)C)cc2)c(OC)c1` [Example B1], the EC50 was 260 nM. For `CC(C)Oc1ccc(NC(=S)NCc2cccn2C)cc1` [Example B2], the EC50 was determined as 2590 nM. For `CC(C)Oc1ccc(NC(=S)NCc2nccs2)cc1` [Example B3], the EC50 came to 1380 nM. Same read-out and setting: next, `CCOc1ccc(NC(=S)NCc2coc(C)c2)cc1` [Example B4]: 1440 nM; `CCCOc1ccc(NC(=S)NCc2ccco2)cc1` [Example B5]: 1510 nM; `CCc1ccc(NC(=S)NCc2ccoc2)cc1` [Example B6]: 1880 nM.

On to `Cc1cc(CNC(=S)Nc2ccc(OC(C)C)cc2)no1` [Example B7], for which the EC50 is 1890 nM. For `CCN(CC)c1ccc(NC(=S)NCc2ccoc2)cc1` [Example B8], the EC50 came out at 4090 nM.

Turning to `COc1ccc(CNC(=S)NC(=O)c2ccccc2Cl)cc1` [Example B9], the EC50 turned out to be 4900 nM. The same measure, in the same setting: the value for `CCOc1ccc(NC(=S)NCc2ccc[nH]2)cc1` [Example B10] was 160 nM; that for `CC(C)Oc1ccc(NC(=S)NCc2cccs2)cn1` [Example B11] was 220 nM. Still for that read-out and setting: next, `CC(C)Oc1ccc(NC(=S)NCc2ccc[nH]2)cn1` [Example B12]: 340 nM; `CCn1cccc1CNC(=S)Nc1ccc(OC(C)C)cc1` [Example B13]: 1290 nM. Still for that read-out and setting: the value for `C=CCOc1ccc(NC(=S)NCc2ccc[nH]2)cc1` [Example B14] was 160 nM; that for `C=COc1ccc(NC(=S)NCc2ccc[nH]2)cc1` [Example B15] was 180 nM.

With `CCSc1ccc(NC(=S)NCc2ccc[nH]2)cc1` [Example B16], the EC50 came to 210 nM. Same read-out and setting: next, `S=C(NCc1ccc[nH]1)Nc1ccc2c(c1)OCCO2` [Example B17]: 310 nM; `S=C(NCc1ccc[nH]1)Nc1ccc(SC2CC2)cc1` [Example B18]: 410 nM; `CSc1ccc(NC(=S)NCc2ccc[nH]2)cc1` [Example B19]: 430 nM. The same measure, in the same setting: the value for `FC(F)(F)Oc1ccc(NC(=S)NCc2ccc[nH]2)cc1` [Example B20] was 590 nM; that for `CC(C)Nc1ccc(NC(=S)NCc2ccc[nH]2)cc1` [Example B21] was 630 nM; that for `FC(F)(F)c1ccc(NC(=S)NCc2ccc[nH]2)c(Cl)c1` [Example B22] was 670 nM. The same measure, in the same setting: the value for `S=C(NCc1ccc[nH]1)Nc1ccc2c(c1)CCC2` [Example B23] was 790 nM; that for `C=Cc1ccc(NC(=S)NCc2ccc[nH]2)cc1` [Example B24] was 870 nM. Turning to `CN(C)c1ccc(NC(=S)NCc2cccs2)cc1` [Example B25], the EC50 was determined as 1500 nM. On the same count and under the same terms, next, `S=C(NCc1cccs1)Nc1ccc(-n2cccn2)cc1` [Example B26]: 1530 nM; `CC(C)(C)c1ccc(NC(=S)NCc2ccc[nH]2)cc1` [Example B27]: 1710 nM. Consider `CCOc1ccc(NC(=S)NCc2ccc(C)o2)cc1` [Example B28], for which the EC50 is 1910 nM. Still for that read-out and setting: the value for `COC(=O)c1ccc(NC(=S)NCc2cccs2)cc1` [Example B29] was 2940 nM; that for `CC(C)Oc1ccc(NC(=S)NCc2ccno2)cc1` [Example B30] was 3860 nM; that for `CCOc1ccc(NC(=S)NCc2sccc2C)cc1` [Example B31] was 4160 nM. Same read-out and setting: the value for `COc1ccc(NC(=S)NCc2ccc[nH]2)c(C)c1` [Example B32] was 5190 nM. Same read-out and setting: the value for `CC(C)COc1ccc(NC(=S)NCc2ccc[nH]2)cc1` [Example B33] was 5560 nM.
